± gives the expanded uncertainty stated by the source.
Assay: xn = mol fraction of the nth substance listed
Conditions: Liquid, Vibrating tube method

CCCCCCCC [octane] + CCCCCC
Conditions	mass density [kg/m3]
313.14 K, 18000 kPa, x2 = 0.1654	697.47 ± 0.39
313.14 K, 18000 kPa, x2 = 0.5749	683.06 ± 0.41
313.14 K, 18000 kPa, x2 = 0.7995	672.32 ± 0.42
313.14 K, 18000 kPa, x2 = 0.9308	665.28 ± 0.43
313.14 K, 19000 kPa, x2 = 0.1654	698.27 ± 0.4
313.14 K, 19000 kPa, x2 = 0.5749	683.89 ± 0.42
313.14 K, 19000 kPa, x2 = 0.7995	673.21 ± 0.43
313.14 K, 19000 kPa, x2 = 0.9308	666.2 ± 0.44
313.14 K, 20000 kPa, x2 = 0.1654	699.05 ± 0.41
313.14 K, 20000 kPa, x2 = 0.5749	684.72 ± 0.43
313.14 K, 20000 kPa, x2 = 0.7995	674.07 ± 0.44
313.14 K, 20000 kPa, x2 = 0.9308	667.1 ± 0.45
313.14 K, 21000 kPa, x2 = 0.1654	699.81 ± 0.42
313.14 K, 21000 kPa, x2 = 0.5749	685.52 ± 0.44
313.14 K, 21000 kPa, x2 = 0.7995	674.92 ± 0.45
313.14 K, 21000 kPa, x2 = 0.9308	667.97 ± 0.46
313.14 K, 22000 kPa, x2 = 0.1654	700.55 ± 0.43
313.14 K, 22000 kPa, x2 = 0.5749	686.32 ± 0.45
313.14 K, 22000 kPa, x2 = 0.7995	675.74 ± 0.46
313.14 K, 22000 kPa, x2 = 0.9308	668.8 ± 0.47
313.14 K, 23000 kPa, x2 = 0.1654	701.28 ± 0.44
313.14 K, 23000 kPa, x2 = 0.5749	687.1 ± 0.46
313.14 K, 23000 kPa, x2 = 0.7995	676.52 ± 0.47
313.14 K, 23000 kPa, x2 = 0.9308	669.6 ± 0.48
313.14 K, 24000 kPa, x2 = 0.1654	701.98 ± 0.44
313.14 K, 24000 kPa, x2 = 0.5749	687.85 ± 0.46
313.14 K, 24000 kPa, x2 = 0.7995	677.27 ± 0.48
313.14 K, 24000 kPa, x2 = 0.9308	670.36 ± 0.49
313.14 K, 25000 kPa, x2 = 0.1654	702.7 ± 0.45
313.14 K, 25000 kPa, x2 = 0.5749	688.59 ± 0.47
313.14 K, 25000 kPa, x2 = 0.7995	677.99 ± 0.49
313.14 K, 25000 kPa, x2 = 0.9308	671.1 ± 0.5
323.06 K, 1000 kPa, x2 = 0.5749	658.22 ± 0.27
323.06 K, 2000 kPa, x2 = 0.5749	659.25 ± 0.28
323.06 K, 3000 kPa, x2 = 0.5749	660.31 ± 0.28
323.06 K, 4000 kPa, x2 = 0.5749	661.34 ± 0.29
323.06 K, 5000 kPa, x2 = 0.5749	662.42 ± 0.3
323.06 K, 6000 kPa, x2 = 0.5749	663.46 ± 0.31
323.06 K, 7000 kPa, x2 = 0.5749	664.53 ± 0.32
323.06 K, 8000 kPa, x2 = 0.5749	665.61 ± 0.33
323.06 K, 9000 kPa, x2 = 0.5749	666.67 ± 0.33
323.06 K, 10000 kPa, x2 = 0.5749	667.73 ± 0.34
323.06 K, 11000 kPa, x2 = 0.5749	668.78 ± 0.35
323.06 K, 12000 kPa, x2 = 0.5749	669.81 ± 0.36
323.06 K, 13000 kPa, x2 = 0.5749	670.83 ± 0.37
323.06 K, 14000 kPa, x2 = 0.5749	671.84 ± 0.38
323.06 K, 15000 kPa, x2 = 0.5749	672.81 ± 0.39
323.06 K, 16000 kPa, x2 = 0.5749	673.78 ± 0.4
323.06 K, 17000 kPa, x2 = 0.5749	674.72 ± 0.41
323.06 K, 18000 kPa, x2 = 0.5749	675.63 ± 0.42
323.06 K, 19000 kPa, x2 = 0.5749	676.52 ± 0.43
323.06 K, 20000 kPa, x2 = 0.5749	677.38 ± 0.43
323.06 K, 21000 kPa, x2 = 0.5749	678.25 ± 0.44
323.06 K, 22000 kPa, x2 = 0.5749	679.1 ± 0.45
323.06 K, 23000 kPa, x2 = 0.5749	679.9 ± 0.46
323.06 K, 24000 kPa, x2 = 0.5749	680.71 ± 0.47
323.06 K, 25000 kPa, x2 = 0.5749	681.47 ± 0.48
323.07 K, 1000 kPa, x2 = 0.2199	672.17 ± 0.26
323.07 K, 2000 kPa, x2 = 0.2199	673.14 ± 0.27
323.07 K, 3000 kPa, x2 = 0.2199	674.14 ± 0.28
323.07 K, 4000 kPa, x2 = 0.2199	675.13 ± 0.28
323.07 K, 5000 kPa, x2 = 0.2199	676.14 ± 0.29
323.07 K, 6000 kPa, x2 = 0.2199	677.12 ± 0.3
323.07 K, 7000 kPa, x2 = 0.2199	678.12 ± 0.31
323.07 K, 8000 kPa, x2 = 0.2199	679.13 ± 0.32
323.07 K, 9000 kPa, x2 = 0.2199	680.12 ± 0.32
323.07 K, 10000 kPa, x2 = 0.2199	681.12 ± 0.33
323.07 K, 11000 kPa, x2 = 0.2199	682.09 ± 0.34
323.07 K, 12000 kPa, x2 = 0.2199	683.06 ± 0.35
323.07 K, 13000 kPa, x2 = 0.2199	684.02 ± 0.36
323.07 K, 14000 kPa, x2 = 0.2199	684.97 ± 0.37
323.07 K, 15000 kPa, x2 = 0.2199	685.89 ± 0.38
323.07 K, 16000 kPa, x2 = 0.2199	686.79 ± 0.38
323.07 K, 17000 kPa, x2 = 0.2199	687.68 ± 0.39
323.07 K, 18000 kPa, x2 = 0.2199	688.54 ± 0.4
323.07 K, 19000 kPa, x2 = 0.2199	689.38 ± 0.41
323.07 K, 20000 kPa, x2 = 0.2199	690.21 ± 0.42
323.07 K, 21000 kPa, x2 = 0.2199	691.03 ± 0.43
323.07 K, 22000 kPa, x2 = 0.2199	691.83 ± 0.44
323.07 K, 23000 kPa, x2 = 0.2199	692.58 ± 0.45
323.07 K, 24000 kPa, x2 = 0.2199	693.35 ± 0.45
323.07 K, 25000 kPa, x2 = 0.2199	694.1 ± 0.46
323.08 K, 1000 kPa, x2 = 0.1654	674.04 ± 0.26
323.08 K, 2000 kPa, x2 = 0.1654	675.02 ± 0.27
323.08 K, 3000 kPa, x2 = 0.1654	676 ± 0.28
323.08 K, 4000 kPa, x2 = 0.1654	676.97 ± 0.28
323.08 K, 5000 kPa, x2 = 0.1654	677.97 ± 0.29
323.08 K, 6000 kPa, x2 = 0.1654	678.97 ± 0.3
323.08 K, 7000 kPa, x2 = 0.1654	679.95 ± 0.31
323.08 K, 8000 kPa, x2 = 0.1654	680.93 ± 0.31
323.08 K, 9000 kPa, x2 = 0.1654	681.93 ± 0.32
323.08 K, 10000 kPa, x2 = 0.1654	682.9 ± 0.33
323.08 K, 11000 kPa, x2 = 0.1654	683.88 ± 0.34
323.08 K, 12000 kPa, x2 = 0.1654	684.84 ± 0.35
